Measurements taken from patent US11400070B2, “Methods of treating retinal diseases” (Alimera Sciences, Inc., priority 2018, dated 2022).
Read-outs that look alike come from different tables or passages of the source.

What was measured:
ARPE-19 monolayers [1] = assay: Suppression of gHSA-induced reduction of TEER in confluent ARPE-19 monolayers; assay type: cell-based
ARPE-19 monolayers [2] = assay: Cytotoxicity by microscopic inspection of monolayers and TEER reduction; assay type: cell-based; conditions: for Cytotoxic: ARPE-19 monolayers, any concentration tested; for Cytotoxicity observed: any of the concentrations tested
Experimental: Cytotoxicity of test compounds was assessed by microscopic inspection of cellular monolayers and reductions in TEER following the administration of test compounds. All compounds were formulated fresh on the day of the experiment. Final concentrations were prepared by serial dilutions in DMEM media. Separate vehicle controls were prepared for each study. Formulation for all agents utilized vehicles containing less than 0.1% DMSO.

rd10 mice [3] = assay: Superoxide radicals (dihydroethidium dye) in rd10 retinas; assay type: in vivo, mouse; conditions: data not shown
C57bl/6 female mice = assay: Laser-induced choroidal neovascularization at Bruch's membrane rupture sites; assay type: in vivo, mouse; conditions: 40 mg/kg daily s.c., 3 days before to 1 week after laser
Experimental: Choroidal neovascularization was induced by methods known to one of ordinary skill in the art. […] Am J Pathol 1998; 153(5):1641-6. Adult C57bl/6 female mice (Charles River, Wilmington, Mass.), 5 weeks of age, were given daily subcutaneous injections of 40 mg/kg metipranolol or vehicle (PBS containing 5.8% ethanol) every day, starting 3 days before laser-induced Bruch's membrane rupture and continuing through 1 week after laser treatment. Mice were anesthetized, with a mixture of ketamine (100 mg/kg) and xylazine (5 mg/kg) by intraperitoneal injections, and pupils were dilated with 0.5% tropicamide and 0.5% phenylephrine hydrochloride from Santen Pharmaceutical Co., Osaka, Japan. […] Following 1 week after laser, animals were euthanized and choroidal neovascularization was measured. […] The remaining eyecups consisting of the retinal pigmented epithelium, choroid, and sclera were stained with FITC-labeled Griffonia Simplicifolia lectin (GSA), which selectively stains vascular cells, fluorescent images were captured with an Axioskop microscope from Zeiss, Thornwood, N.Y., and the area of choroidal neovascularization at Bruch's membrane rupture sites were measured. These images were quantified using Image-Pro Plus software. […]

NADPH Oxidase = NADPH Oxidase activity in retinas of rd10 mice; assay type: in vivo, mouse
rd10 mice [4] = assay: Scotopic and photopic electroretinogram recordings in rd10 mice; assay type: in vivo, mouse
Experimental: (§1) Mice were treated in accordance with the Association for Research in Vision and Ophthalmology. Rd10^+/+ mice (B6.CXB1-Pde6brd10/J) were given daily subcutaneous injections of 40 mg/kg metipranolol provided by the British Pharmacopoeia Commission Laboratory, Tddington, UK or vehicle (PBS containing 5.8% ethanol) between P14 to P65.
Scotopic and photopic electroretinograms (ERGs) were recorded using a Diagnosys instrument (Espion, Littleton, Mass.). See Komeima K, Rogers B S, Lu L, Campochiaro P A. Antioxidants reduce cone cell death in a model of retinitis pigmentosa. Proc Natl Acad Sci USA 2006; 103:11300-5 and Komeima K, Rogers B S, Campochiaro P A. Antioxidants slow photoreceptor cell death in mouse models of retinitis pigmentosa. J Cell Physiol 2007; 213:809-15. For scotopic recordings, rd10 mice were dark adapted for overnight, anesthetized with a mixture of ketamine (100 mg/kg) and xylazine (5 mg/kg) by intraperitoneal injections, and pupils were dilated with 0.5% tropicamide and 0.5% phenylephrine hydrochloride provided by Santen Pharmaceutical Co., Osaka, Japan. Mice were placed on a heating pad and platinum electrodes were placed on the corneas after application of gonioscopic prism solution provided by Alcon Labs, Fort Worth, Tex. Reference electrode was attached subcutaneously between the eyes on the scalp and a ground electrode was attached to the tail. The Ganzfeld illuminator was then placed over the head in a position to ensure equal illumination to both eyes. Scotopic ERGs were recorded at 11 flash intensities (−4, −2.5, −2.2, −1.79, −1.39, −1, −0.6, −0.39, −0.20, 1.0, 1.39 log cd-s/m2). For each flash intensity, 5 readings were taken and averaged. For photopic ERGs, mice were initially light adapted for 7 minutes with 30 cd/m2 background light and flashed at 3 light intensities (0.6, 1.0, 1.39 log cd-s/m2). For each flash intensity, 5 readings were taken and averaged.

rd10 mice [5] = assay: Cone cell density in rd10 mice; assay type: in vivo, mouse; conditions: P65; 40 mg/kg daily s.c.; 4 quadrants
Experimental: as §1
Cone cell density was measured by methods known by one of skill in the arts. See Komeima K, Rogers B S, Lu L, Campochiaro P A. Antioxidants reduce cone cell death in a model of retinitis pigmentosa. Proc Natl Acad Sci USA 2006; 103:11300-5 and Komeima K, Rogers B S, Campochiaro P A. Antioxidants slow photoreceptor cell death in mouse models of retinitis pigmentosa. J Cell Physiol 2007; 213:809-15. Briefly, mice at P65 were euthanized and the eyes were removed and fixed in 4% PFA for 1 hour followed by dissection to remove cornea, iris and lens. The retina was carefully isolated from the eyecup and a small incision was made at the nasal position for future orientation. […] The retinas were flat mounted and visualized by fluorescence microscopy using an excitation wavelength of 543 nm to detect rhodamine fluorescence of PNA.

rd10 mice [6] = assay: Outer nuclear layer (ONL) thickness in rd10 mice; assay type: in vivo, mouse; conditions: P35; 40 mg/kg daily s.c.; 6 locations measured
Experimental: as §1
Measurements of ONL thickness were performed using methods known to one of skill in the art. See Lee S Y, Usui S, Zafar A B, et al. N-acetylcysteine promotes long term survival of cones in a model of retinitis pigmentosa. 2010; 226:1843-9. Briefly, 10 micron frozen ocular sections were cut in the 12:00 to 6:00 meridian, stained with hematoxylin and eosin, visualized with an Axioskop microscope from Zeiss, Thornwood, N.Y. and images were digitized using a three charge-coupled device (CCD) color video camera from Toshiba, Tokyo, Japan, and a frame grabber. […] Three separate sections were used for each mouse and averaged. Eight animals injected with vehicle and 9 animals injected with metipranolol were used to evaluate ONL thickness between these two groups.

rd10 mice [7] = assay: Nitrite and nitrotyrosine assays in retinas of rd10 mice; assay type: in vivo, mouse; conditions: 40 mg/kg daily s.c.
Experimental: as §1
Nitrite concentration in retinas from P35 rd10 mice was measured using the Nitrate/Nitrite Colorimetric Assay Kit (Cayman Chemical Company, Ann Arbor, Mich.) according to the manufacturer's instructions. Nitrotyrosine assay was performed on retinas from P35 mice using the 3-Nitrotyrosine ELISA kit (Abcam, Cambridge, Mass.).

rd10 mice [8] = assay: Immunohistochemistry (rhodopsin, cone arrestin, 3-nitrotyrosine) of rd10 retinas; assay type: in vivo, mouse; conditions: 40 mg/kg daily s.c.
Experimental: as §1
Ten microns ocular frozen sections were stained with anti-rhodopsin antibody 1D4 (1:200, ThermoFisher Scientific, Waltham, Mass.), anti-3-nitrotyrosine antibody (10 μg/ml, EMD Millipore, Temecula, Calif.) or anti-cone arrestin antibody (1:10,000, EMD Millipore, Temecula, Calif.).

rd10 mice [9] = assay: TUNEL assay in retinas of rd10 mice; assay type: in vivo, mouse; conditions: P23; 40 mg/kg daily s.c.
Experimental: as §1
Apoptotic cells were identified in retinas from P23 mice using the manufacturer's instructions for the In Situ Cell Death Detection Kit (Sigma Aldrich, St. Louis, Mo.).

Cc1cc(OCC(O)CNC(C)C)c(C)c(C)c1O (centres unmarked) [Desacetylmetipranolol, desacetylmetipranolol]
Effect on gHSA induced reduction in RPE resistance (TEER) (ARPE-19 monolayers [1]; pretreatment 10 μM, 4 and 6 hours after gHSA): suppressed the gHSA induced reduction in RPE resistance
EC50 (ARPE-19 monolayers [1]; read-out: EC50 for suppression of the decrease in TEER induced by gHSA, pretreatment, gHSA 100 μg/mL): 980 nM
Cytotoxic (ARPE-19 monolayers [2]): No
Cytotoxicity observed (ARPE-19 monolayers [2]): No cytotoxicity was observed

CC(=O)Oc1c(C)cc(OCC(O)CNC(C)C)c(C)c1C (centres unmarked) [Metipranolol, metipranolol]
Superoxide radicals (dihydroethidium dye) vs vehicle (rd10 mice [3]): no differences were found
Area of choroidal neovascularization at Bruch's membrane rupture sites vs vehicle (C57bl/6 female mice): significantly reduced
EC50 (ARPE-19 monolayers [1]; Homo sapiens, ARPE-19 assay, concentration-response, gHSA-induced TEER decrease, read-out: EC50): 1300 nM
NADPH Oxidase activity (NADPH Oxidase): did not reduce NADPH Oxidase activity
Mean scotopic b-wave amplitude vs vehicle (rd10 mice [4]; P35, 40 mg/kg daily s.c. from P14, all 11 flash intensities): significantly higher
Mean scotopic a-wave amplitude vs vehicle (rd10 mice [4]; P35, 40 mg/kg daily s.c. from P14, flash 1.0 and 1.39 log cd-s/m2): significantly greater
Photopic b-wave amplitudes vs vehicle (rd10 mice [4]; P35, 40 mg/kg daily s.c., 0.6 and 1.0 log cd-s/m2): significantly higher
Mean scotopic b-wave amplitude vs vehicle (rd10 mice [4]; P50, 40 mg/kg daily s.c., 1.0 and 1.39 log cd-s/m2): significantly higher
Mean photopic b-wave amplitude vs vehicle (rd10 mice [4]; P50, 40 mg/kg daily s.c., 1.39 log cd-s/m2): significantly greater
Mean cone photoreceptor cell density vs vehicle (rd10 mice [5]): significantly greater in 3 of 4 quadrants
Cytotoxic (ARPE-19 monolayers [2]): No
Cytotoxicity observed (ARPE-19 monolayers [2]): No cytotoxicity was observed
Mean ONL thickness vs vehicle (rd10 mice [6]): significantly greater at 4 of the 6 locations
Mean concentration of nitrite in retinal homogenates (rd10 mice [7]; P35): significantly greater in retinal homogenates from P35 vehicle-treated versus metipranolol-treated rd10 mice
Mean concentration of 3-nitrotyrosine protein adducts (ELISA) vs vehicle (rd10 mice [7]; P35 retinas): significant reduction
Rhodopsin staining of outer segments (rd10 mice [8]; P35): substantially more rhodopsin staining
Staining for cone arrestin (rd10 mice [8]; P50): robust
Staining for nitrotyrosine (rd10 mice [8]; P50): greater staining for nitrotyrosine in retinas from P50 vehicle-treated rd10 mice, than in P50 metipranolol-treated rd10 mice
TUNEL-positive cells in retina (rd10 mice [9]): few TUNEL-positive cells

CC1(C)O[C@@H]2C[C@H]3[C@@H]4C[C@H](F)C5=CC(=O)C=C[C@]5(C)[C@@]4(F)[C@@H](O)C[C@]3(C)[C@]2(C(=O)CO)O1 [Fluocinolone, fluocinolone acetonide]
Effect on reduction in TEER induced by gHSA (ARPE-19 monolayers [1]; pretreatment 10^−6 to 10^−4 M, gHSA 100 μg/mL): did not significantly alter
Cytotoxic (ARPE-19 monolayers [2]): No
Cytotoxicity observed (ARPE-19 monolayers [2]): No cytotoxicity was observed
